IC50 data for one compound are collected here from paper PMC7641324, “Small-molecule sensitization of RecBCD helicase–nuclease to a Chi hotspot-activated state” (Nucleic Acids Research, 2020).

The target in the experiment is T1, RecBCD enzyme (RecB subunit) (Escherichia coli, UniProt P08394).
T1 construct: RecBCD holoenzyme (330 kDa, three subunits); with RecC and RecD
Briefly: RecBCD nuclease assay with [3H] phage T7 DNA, […] ATP; unaffected by Triton X-100. In kind it is biochemical.

T1 sequence (P08394 2-1180): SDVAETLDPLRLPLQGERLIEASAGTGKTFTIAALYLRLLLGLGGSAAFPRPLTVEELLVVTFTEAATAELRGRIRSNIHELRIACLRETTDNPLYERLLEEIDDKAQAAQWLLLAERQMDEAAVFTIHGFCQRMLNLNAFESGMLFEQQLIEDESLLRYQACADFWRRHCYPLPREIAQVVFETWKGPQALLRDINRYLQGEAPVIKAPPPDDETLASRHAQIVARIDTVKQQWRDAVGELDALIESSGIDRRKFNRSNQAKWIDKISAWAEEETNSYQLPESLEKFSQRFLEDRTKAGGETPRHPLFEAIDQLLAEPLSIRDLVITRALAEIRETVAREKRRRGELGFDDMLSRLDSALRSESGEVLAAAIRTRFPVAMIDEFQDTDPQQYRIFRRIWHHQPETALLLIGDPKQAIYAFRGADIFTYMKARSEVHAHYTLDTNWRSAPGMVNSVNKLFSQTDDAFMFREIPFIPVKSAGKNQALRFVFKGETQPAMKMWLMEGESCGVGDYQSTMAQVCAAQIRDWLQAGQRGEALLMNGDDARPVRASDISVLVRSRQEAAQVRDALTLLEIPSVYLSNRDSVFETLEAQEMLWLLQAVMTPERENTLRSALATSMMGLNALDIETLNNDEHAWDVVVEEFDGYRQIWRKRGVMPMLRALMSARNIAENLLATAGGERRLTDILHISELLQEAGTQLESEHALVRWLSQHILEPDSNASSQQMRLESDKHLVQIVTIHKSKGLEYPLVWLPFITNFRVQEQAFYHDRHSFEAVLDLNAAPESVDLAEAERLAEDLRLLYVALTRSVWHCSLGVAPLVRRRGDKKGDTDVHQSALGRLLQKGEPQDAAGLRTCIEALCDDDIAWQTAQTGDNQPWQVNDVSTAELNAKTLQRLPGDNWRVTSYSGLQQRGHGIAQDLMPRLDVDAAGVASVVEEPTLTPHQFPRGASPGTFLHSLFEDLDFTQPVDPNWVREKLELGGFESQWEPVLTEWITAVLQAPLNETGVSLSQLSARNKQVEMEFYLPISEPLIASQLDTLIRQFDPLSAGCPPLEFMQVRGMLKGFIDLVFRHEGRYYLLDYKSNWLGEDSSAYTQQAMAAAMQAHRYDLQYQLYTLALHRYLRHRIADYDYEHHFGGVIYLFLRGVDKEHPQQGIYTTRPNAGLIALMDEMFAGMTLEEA
T1 sequence (P07648 whole entry, further chain): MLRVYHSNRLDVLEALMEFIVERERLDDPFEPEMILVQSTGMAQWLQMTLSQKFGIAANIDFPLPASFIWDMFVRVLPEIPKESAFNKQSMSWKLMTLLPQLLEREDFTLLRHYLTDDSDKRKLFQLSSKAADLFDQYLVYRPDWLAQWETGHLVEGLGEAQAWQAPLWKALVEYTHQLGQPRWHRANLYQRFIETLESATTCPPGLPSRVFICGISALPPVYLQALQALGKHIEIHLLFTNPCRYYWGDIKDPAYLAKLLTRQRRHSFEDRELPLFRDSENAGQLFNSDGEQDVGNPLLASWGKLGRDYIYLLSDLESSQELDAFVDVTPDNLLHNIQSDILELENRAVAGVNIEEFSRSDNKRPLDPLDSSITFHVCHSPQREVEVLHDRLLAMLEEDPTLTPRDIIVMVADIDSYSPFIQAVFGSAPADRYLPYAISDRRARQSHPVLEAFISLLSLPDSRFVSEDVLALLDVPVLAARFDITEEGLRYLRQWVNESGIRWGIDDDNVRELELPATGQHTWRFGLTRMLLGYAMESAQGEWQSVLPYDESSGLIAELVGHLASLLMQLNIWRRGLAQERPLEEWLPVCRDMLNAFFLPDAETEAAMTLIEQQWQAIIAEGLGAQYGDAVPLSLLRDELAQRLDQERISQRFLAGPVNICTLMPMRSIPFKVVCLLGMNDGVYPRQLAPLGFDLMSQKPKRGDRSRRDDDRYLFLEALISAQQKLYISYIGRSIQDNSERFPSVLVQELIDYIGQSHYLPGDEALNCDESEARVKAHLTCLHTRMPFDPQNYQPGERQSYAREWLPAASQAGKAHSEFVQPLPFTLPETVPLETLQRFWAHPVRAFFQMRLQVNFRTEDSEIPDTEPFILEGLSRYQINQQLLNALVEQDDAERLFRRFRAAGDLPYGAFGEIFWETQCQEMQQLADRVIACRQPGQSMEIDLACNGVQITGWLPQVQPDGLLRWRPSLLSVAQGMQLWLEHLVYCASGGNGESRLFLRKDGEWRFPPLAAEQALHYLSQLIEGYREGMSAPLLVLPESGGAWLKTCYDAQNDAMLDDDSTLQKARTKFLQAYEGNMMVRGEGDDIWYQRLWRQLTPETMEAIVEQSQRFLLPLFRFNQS
T1 sequence (P04993 whole entry, further chain): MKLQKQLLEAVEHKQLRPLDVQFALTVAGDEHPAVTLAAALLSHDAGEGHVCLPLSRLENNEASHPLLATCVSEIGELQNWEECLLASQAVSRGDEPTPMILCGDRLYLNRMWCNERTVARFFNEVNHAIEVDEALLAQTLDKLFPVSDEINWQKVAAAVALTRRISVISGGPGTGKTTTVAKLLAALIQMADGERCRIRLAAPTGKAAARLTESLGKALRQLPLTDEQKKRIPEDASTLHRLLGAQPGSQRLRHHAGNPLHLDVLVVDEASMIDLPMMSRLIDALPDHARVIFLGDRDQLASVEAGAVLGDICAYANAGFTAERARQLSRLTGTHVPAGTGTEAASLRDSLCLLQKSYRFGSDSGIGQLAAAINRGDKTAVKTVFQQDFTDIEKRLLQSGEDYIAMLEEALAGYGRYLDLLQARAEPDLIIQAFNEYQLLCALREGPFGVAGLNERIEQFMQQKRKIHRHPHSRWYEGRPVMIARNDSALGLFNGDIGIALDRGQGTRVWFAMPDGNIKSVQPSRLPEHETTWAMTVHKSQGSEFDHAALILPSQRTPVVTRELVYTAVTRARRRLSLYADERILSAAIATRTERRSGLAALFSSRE

Take `CCC(Sc1nnc2n(CCOc3ccccc3Cl)c3ccccc3n12)C(=O)O` (stereo not shown) [NSAC1003, 2-({7-[2-(2-chlorophenoxy)ethyl]-2,4,5,7-tetraazatricyclo[6.4.0.0^2,^6]dodeca-1(8),3,5,9,11-pentaen-3-yl}sulfanyl)butanoic acid]: the IC50 was 6.3 ± 0.3 µM.

The IC50 is the midpoint of a concentration-inhibition curve. A higher IC50 goes with weaker potency.
